pIC50: −log10 of the molar value. Converted amounts (≈) assume the structure as drawn.

Assay [1] relates to Trypanosoma brucei brucei. The experiment in a line: Antitrypanosomal activity against Trypanosoma brucei brucei S427 after 48 hrs by alamar blue assay. As to conditions: S427, 48 h; call rule not given here. The class given is functional. A general note: Alamar Blue is a resazurin reagent that responds to reducing activity.
The next assay has as its system K562. The experiment in a line: Cytotoxicity against human K562 cells after 24 hrs by MTT assay. In kind it is functional, cell-based. The conditions noted are these: for IC50: k562; for pIC50: Homo sapiens, K562, 24 h, read-out: IC50. (In general: Tetrazolium dyes change colour on reduction, which living cells bring about.)
The next assay relates to Jurkat. Nature of the assay: Cytotoxicity against human Jurkat cells after 24 hrs by MTT assay. The class given is functional, cell-based.
Another assay has as its system U-937. The experiment in a line: Cytotoxicity against human U937 cells after 24 hrs by MTT assay. The class given is functional, cell-based. The conditions noted are these: U-937, 24 h.
A short description of assay [2]: Inhibition of NF-kappaB activity in TNFalpha-stimulated human K562 cells after 24 hrs by luciferase reporter gene assay. The class given is cell-based. As to conditions: K562, 24 h.

As usually defined, the MIC is the least concentration at which growth counts as inhibited. One may read the pIC50 as the negative decadic logarithm of the IC50, by convention in mol/L. Turning to `COc1cc(C)cc2c1C(=O)c1c(O)cc(O)cc1C2=O` [1-O-METHYLEMODIN], the MIC in assay [1] stood at 11 µM (≈ 3.12 µg/mL). The IC50 result with K562 is “Not Active”. The pIC50 was less than 4.00 with Jurkat, 4.05 in the assay with U-937 and less than 4.00 in assay [2].
For the compound `C=C1CC[C@@H]2C(C)(C)CCC[C@@]2(C)[C@@H]1CC/C(C)=C/Cn1c[n+](C)c2ncnc(N)c21` [AGELASINE D], the MIC in assay [1] was found to be 14.8 µM.
The same measure, in the same setting: in the case of `C[C@H]1CCC/C=C\C(=O)c2c(O)cc(O)cc2CC(=O)O1` it was more than 100 µM.
Take `C[C@H]1CCC/C=C/C(=O)c2c(O)cc(O)cc2CC(=O)O1` [DEHYDROCURVULARIN]: the MIC in assay [1] was more than 100 µM. Besides, the pIC50 with K562 was 4.43; in the assay on Jurkat it was 5.26; in the assay with U-937, 5.60; in assay [2], 5.25.
On to `C[C@H]1CCC[C@H]2O[C@@H]2C(=O)c2c(O)cc(O)cc2CC(=O)O1`, for which, in assay [1], the MIC is more than 100 µM.
Compound `C/C=C/C=C/C(=O)C1=C(O)[C@@]2(C)[C@H]3C(C(=O)/C=C/C=C/C)=C(O)[C@@]4(C)[C@@H]1[C@]1(C)O[C@@]4(O)[C@@]3(C)O[C@@]12O` [TRICHODIMEROL] returned a minimum inhibitory concentration (MIC) in assay [1] of 6.29 µM (≈ 3.12 µg/mL). Also, the pIC50 in the assay on K562 is 4.13; with Jurkat, 4.55; in the assay on U-937, 4.78; in assay [2], 4.32.
For `COc1cc(CO)cc2c1C(=O)c1c(O)cc(O)c(Cl)c1C2=O` the same measures were 18.7 µM (≈ 6.26 µg/mL), 4.40, 4.55, 4.66 and 4.80.
Consider `COc1cc(C)cc2c1C(=O)c1c(O)cc(O)c(Cl)c1C2O` (configuration not stated), for which 9.75 µM (≈ 3.13 µg/mL) was the least that counted as inhibitory in assay [1] (MIC).
For the compound `COc1cc(CO)cc2c1C(=O)c1c(O)cc(O)cc1C2=O` [CARVIOLIN], the MIC in assay [1] amounted to 41.7 µM (≈ 12.5 µg/mL). Besides, the IC50 entry in the assay with K562 is reported as “Not Active”. Moreover, the pIC50 (in the assay with Jurkat; with U-937; in assay [2]) was less than 4.00 each time.
Turning to `Cc1cc(=O)c2c(C)cc(O)cc2o1`, in assay [1], the MIC was more than 100 µM.
In turn, `CO[C@@H]1CCC[C@H](C)OC(=O)Cc2cc(O)cc(O)c2C(=O)C1` [11BETA-METHOXYCURVULARIN] came in with a minimum inhibitory concentration (MIC) in assay [1] of 4.96 µM (≈ 1.6 µg/mL). In addition, the pIC50 in the assay on K562 is 4.91; in the assay on Jurkat, 5.41; in the assay with U-937, 5.74; in assay [2] it was 5.33.
For `COc1cc(C)cc2c1C(=O)c1c(O)cc(O)c(Cl)c1C2=O` the same measures were 78.6 µM (≈ 25.1 µg/mL), 4.61, 4.88, 5.12 and 5.80.
As for `COc1cc(C)cc2c1C(=O)c1c(O)cc(O)c(Cl)c1[C@H]2[C@H]1c2cc(CO)cc(OC)c2C(=O)c2c(O)cc(O)c(Cl)c21` [NEOBULGARONE G], the MIC in assay [1] was more than 100 µM. Moreover, the IC50 result in the assay with K562 is reported as “Not Active”. For the same compound, the pIC50 (with Jurkat; in the assay on U-937; in assay [2]) was less than 4.00 in each case.
With `COc1cc(C)cc2c1C(=O)c1c(O)cc(O)c(Cl)c1[C@H]2[C@H]1c2cc(C)cc(OC)c2C(=O)c2c(O)cc(O)c(Cl)c21` [NEOBULGARONE E], in assay [1], the MIC was more than 100 µM. Further, the pIC50 is less than 4.00 with K562, 4.08 in the assay on Jurkat, 4.32 in the assay with U-937 and 4.34 in assay [2].
For `CO[C@H]1CCC[C@H](C)OC(=O)Cc2cc(O)cc(O)c2C(=O)C1` [11ALPHA-METHOXYCURVULARIN], in assay [1], 9.68 µM (≈ 3.12 µg/mL) was the least that counted as inhibitory (MIC). Besides, the negative-log IC50 (pIC50) in the assay with K562 is 4.39; in the assay on Jurkat, 5.64; in the assay on U-937, 5.34; in assay [2], 5.00.
As to `C[S+]([O-])c1cccc2ccc(=O)oc12` (configuration not stated) [SULFIMARINE], the MIC in assay [1] was more than 100 µM.
In the case of `Cc1ccc(C(=O)Nc2ccc(S(=O)(=O)O)c3cc(S(=O)(=O)O)cc(S(=O)(=O)O)c23)cc1NC(=O)c1cccc(NC(=O)Nc2cccc(C(=O)Nc3cc(C(=O)Nc4ccc(S(=O)(=O)O)c5cc(S(=O)(=O)O)cc(S(=O)(=O)O)c45)ccc3C)c2)c1` [SURAMIN], in assay [1], the minimum inhibitory concentration (MIC) is 0.06 µM (≈ 0.0778 µg/mL).

(Values after ChEMBL document CHEMBL1641368, “NF kappa B inhibitors and antitrypanosomal metabolites from endophytic fungus Penicillium sp. isolated from Limonium tubiflorum” (Bioorg Med Chem, 2011).)
